Measurements from patent US20240252677A1, “ONE-COMPONENT DELIVERY SYSTEM FOR NUCLEIC ACIDS” (The Trustees of the University of Pennsylvania, priority 2021, published 2024).

Columns and labels:
[1] = DLS size of dendrimersomes assembled from glycerol-JDs in water at different concentrations; format: physicochemical; conditions: for Dh (nm): size distribution by intensity
Method: Assembly of all eight glycerol-JDs was performed by injection of their ethanol solution (50 μL) into 1 mL of Milli-Q water. The size distribution and structure of resulting DSs were analyzed by DLS (FIG. 84) and cryo-TEM. […] In a certain concentration range the size of DSs increased with the concentration of JDs injected in water or buffer. […] The dimensions of the assemblies were identical when the concentrations of the JDs in water were identical. Sizes of assemblies from mixtures of 1R and 1S in different ratios (1:3, 1:1 and 3:1), were also identical (FIG. 84). […] With the exception of the rotation of polarized light, the physical properties of enantiomers and their racemic mixtures must be identical.
Dynamic light scattering (DLS). Hydrodynamic diameters (Dh) of the self-assemblies of dendrimer molecules and their size distributions were measured on a Malvern Instruments particle sizer (Zetasizer® Nano S, Malvern Instruments, UK) equipped with 4 mW He—Ne laser (633 nm) and avalanche photodiode positioned at […] to the beam and temperature controlled cuvette holder. Experiments were performed at 25° C. in triplicate. The distribution of radius was intensity.

[2] = Cryo-TEM of dendrimersomes from glycerol-JDs, number of vesicle layers; format: physicochemical
Description: The red numbers in FIG. 85 stand for the unilamellar while yellow numbers for multilamellar DSs. The calculated percentages of unilamellar DSs in the selected images for 2R, 2S and 2rac are 91%, 70% and 13%, respectively. Same trend was found for cryo-TEM of 1R, 1S and 1rac (FIG. 86 through FIG. 88). […] Achiral DSs are all unilamellar.
Cryogenic Transmission Electron Microscopy (Cryo-TEM). Morphologies of the Janus Dendrimer assemblies were characterized by cryo-TEM. Images were acquired on a Carl Zeiss Libra 120 microscope. Samples were prepared by plunge freezing of aqueous dispersion on plasma-treated lacey grids. The vitrified specimens were then transferred to a Gatan-910 cryoholder. The 5 images were recorded at −170° C. with an acceleration voltage of 120 kV. The concentration of JD in the aqueous solution of DSs was 1 mg mL-^1.

[3] = tested on: HEK293T cells; test: In vitro Luc-mRNA transfection, luciferase luminescence expression in HEK293T cells; format: cell-based, human; parameters: unit not given here; conditions: CIAJD 4 mg/mL, HEK293T, 125 ng/well
Method: In Vitro Transfection Activity of DNPs in Human Embrionic Kidney (HEK) 293T Cells: HEK293T cells were seeded into 96-well plates (20,000 cells/well/200 μL) and cultured for 24 h at 37° C. in 5% CO2 complete cell culture media. Screening experiments were performed with nonoptimized DNPs containing naked nucleoside-modified mRNA (Karikó, et al., Immunity 2005, 23, 165-175; Pardi, et al., Methods Mol. Biol. 2013, 969, 29-42), of molar mass 664,341 encoding firefly luciferase (mRNA-Luc). A constant concentration of mRNA-Luc of 125 ng/well was used. The transIT (TransIT-mRNA transfection Kit from Mirus Bio) and MC3-based LNPs (MC3: DLin-MC3-DMA, which is the FDA approved LNP for mRNA delivery) were used as positive controls for cell transfection at a concentration of mRNA-Luc of 125 ng/well, identical to that of the tested DNPs. Subsequently cells were cultured for 24 h, the medium was aspirated under reduced pressure by a glass pipette and cells were lysed with 30 μL/well of cell culture lysis reagent (Promega). The luminescence intensity corresponding to the luciferase protein expressed was characterized and analyzed.
In vitro mRNA Delivery: Human embryonic kidney (HEK) 293T cells (American Type Culture Collection) were cultured in Dulbecco's modified Eagle's medium (DMEM) supplemented with 10% inactivated fetal bovine serum (FBS) (Gemini Bio-Products), 2 mM L-glutamine and 100 U/mL penicillin/streptomycin (Life Technologies) (complete medium). For in vitro screening experiments, HEK293T cells were seeded into 96-well plates (20,000 cells/well/200 μL) and cultured for 24 h in at 37° C. and 5% CO2 in complete media. Cell were transfected with IAJDs with encapsulated naked nucleoside-modified mRNA encoding firefly luciferase (mRNA-Luc) with fixed concentration of mRNA-Luc, 125 ng per well. The transIT (TransIT®-mRNA Transfection Kit, Mirus Bio) was used as a positive control for cell transfection, accordingly per manufacturer protocol and added to cells at the concentration of mRNA-Luc, 125 ng per well, the same as for tested particles. Cells were further cultured for 24 h, then medium was aspirated, and cells were lysed with 30 μL/well of cell culture lysis reagent (Promega). For the characterization of luminescence intensity, 2.5 μL of the lysed cells was mixed with 10 μL of luciferase assay substrate and luminescence was analyzed using a MiniLumat LB 9506 luminometer (Berthold/EG&G; Wallac).
Luminescence characterization for in vitro transfection experiments was performed by determining the luminescence intensity for in vitro Luc-mRNA transfection experiments using a MiniLumat LB 9506 luminometer (Berthold/EG&G; Wallac).
For in vitro Luc-mRNA transfection screening experiments, human embryonic kidney 293 cells (HEK 293) were seeded into 96-well plates (20,000 cells/well/200 μL) and cultured for 18-20 hours at 37° C., 5% CO2 in complete Dulbecco's modified Eagle's medium (DMEM) supplemented with 2 mM L-glutamine (Life Technologies), 100 U/mL penicillin/streptomycin (Invitrogen) and 10% fetal bovine serum (FBS, Gemini Bio-Products). Cells were transfected with DNPs with encapsulated naked nucleoside-modified mRNA encoding firefly luciferase (Luc-mRNA) at constant concentration of Luc-mRNA, 125 ng per well. Luc-mRNA complexed with TransIT (TransIT®-mRNA Transfection Kit, Mirus Bio) or encapsulated in FDA approved MC3-based LNPs were used as positive controls for cell transfection, at the concentration of Luc-mRNA of 125 ng per well, the same as for tested DNPs. After transfection cells were further cultured at 37° C., 5% CO2 for 18-20 hours, then medium was aspirated and cells were lysed with luciferase cell culture lysis reagent (30 μL/well) (Promega, Madison, WI). […]

[4] = Dimensions (size, PDI) of DNPs co-assembled from IAJDs and Luc-mRNA by DLS; format: physicochemical; conditions: CIAJD 4 mg/mL
Method: Dynamic Light Scattering (DLS) for the DNPs was performed in buffer with a Malvern Instruments particle sizer (Zetasizer Nano S, Malvern Instruments, UK) equipped with 4 mW He—Ne laser 633 nm and avalanche photodiode positioned at […] to the beam and temperature-controlled cuvette holder. Instrument parameters were determined automatically along with measurement times.
Formulation of DNPs Containing mRNA-Luc: IAJDs were dissolved in ethanol with various initial concentrations (5-160 mg/mL). Nucleoside-modified mRNA encoding firefly luciferase (mRNA-Luc) was dissolved in water with various initial concentrations (1-4 mg/mL). 12.5 μL of mRNA solution was placed into a clean RNAs free eppendorf (1.5 mL) and mixed with 463 μL of citrate buffer (10 mM, pH 3.0)/acetate buffer (10 mM). For encapsulation of mRNA into IAJDs, 25 μL of IAJDs of the ethanol stock solution was rapidly injected into mRNA solution in citrate or acetate buffer followed by vortex for 5 seconds.
(§1) Dynamic Light Scattering (DLS) for the sizes and polydispersities of DNPs was performed on a Malvern Instruments particle sizer (Zetasizer Nano S, Malvern Instruments, UK) equipped with 4 mW He—Ne laser 633 nm and avalanche photodiode positioned at 1750 to the beam and temperature-controlled cuvette holder. Instrument parameters were determined automatically along with measurement times. Sample solution (0.4 mL) was placed in a semi-micro cuvette (1.6 mL, polystyrene, 10×10×45 mm, manufactured by Greiner Bio-One) and the measurements were performed at 23° C.
Formulation of DNPs obtained by co-assembly of IAJDs and Luc-mRNA was performed as follows. IAJDs were dissolved in ethanol with an initial concentration of 80 mg/mL. Nucleoside-modified mRNA encoding firefly luciferase (Luc-mRNA) was dissolved in UltraPure DNase/RNase-free distilled water with an initial concentration of 4.0 mg/mL. 12.5 μL of Luc-mRNA solution was placed into a clean RNAs free eppendorf (1.5 mL) and 463 μL acetate buffer (10 mM, pH 4.0) was added. Then, 25 μL of IAJD in the ethanol stock solution was rapidly injected into the Luc-mRNA solution in acetate buffer followed by vortex for 5 seconds.
as §1, with “dimensions (sizes” for “sizes”, “polydispersities)” for “polydispersities”, “175°” for “1750”, “set up” for “determined”, “(c.a. 0.4” for “(0.4”, “mm,” for “mm, manufactured by”
Formulation of DNPs Co-assembled from IAJDs and Luc-mRNA: nucleoside-modified mRNA encoding firefly luciferase (Luc-mRNA) was dissolved in UltraPure DNase/RNase-free distilled water with an initial concentration of 4.0 mg/mL. IAJD molecules were dissolved in ethanol with an initial concentration of 80 mg/mL. 12.5 μL of Luc-mRNA solution was taken and placed into a clean RNAs free eppendorf (1.5 mL). Then 463 μL of acetate buffer (10 mM, pH 4.0) was added. Afterwards, 25 μL of IAJD in the ethanol stock solution was taken and rapidly injected into the above Luc-mRNA solution in acetate buffer followed by vortex for 5 seconds.

[5] = Acetate buffer 10 mM pH 4.0, CLuc-mRNA 0.05 mg/mL
[6] = Acetate buffer 10 mM pH 5.2, CLuc-mRNA 0.10 mg/mL
[7] = Citrate buffer 10 mM pH 3.0, CLuc-mRNA 0.05 mg/mL

In the case of `CCCCCCCCCCCCOc1cc(OCCCCCCCCCCCC)cc(C(=O)OCC(COC(=O)C(C)(COC(=O)c2cc(OCCOCCOCCOC)c(OCCOCCOCCOC)c(OCCOCCOCCOC)c2)COC(=O)c2cc(OCCOCCOCCOC)c(OCCOCCOCCOC)c(OCCOCCOCCOC)c2)OC(=O)c2cc(OCCCCCCCCCCCC)cc(OCCCCCCCCCCCC)c2)c1` (racemic) [Compound 1rac, (3,5)-12G1-GC-(rac)-BMPA-(3,4,5)-3EO-G1], the PDI ([1]; JD 0.025 mg·mL−1 in water) is reported as 0.398, the “Dh (nm)” value ([1]; JD 0.025 mg·mL−1 in water) is reported as 86 nm and the PDI ([1]; JD 0.05 mg·mL−1 in water) is reported as 0.277. For the same compound, the “Dh (nm)” value ([1]; JD 0.05 mg·mL−1 in water) was 109 nm, the PDI ([1]; JD 0.1 mg·mL−1 in water) was 0.268 and the “Dh (nm)” value ([1]; JD 0.1 mg·mL−1 in water) was 123 nm. For the same compound, the PDI ([1]; JD 0.15 mg·mL−1 in water) was 0.232, the “Dh (nm)” value ([1]; JD 0.15 mg·mL−1 in water) was 128 nm and the PDI ([1]; JD 0.2 mg·mL−1 in water) was 0.216. The “Dh (nm)” value ([1]; JD 0.2 mg·mL−1 in water) was 136 nm, the PDI ([1]; JD 0.25 mg·mL−1 in water) was 0.238 and the “Dh (nm)” value ([1]; JD 0.25 mg·mL−1 in water) was 142 nm. For the same compound, the PDI ([1]; JD 0.3 mg·mL−1 in water) was 0.203, the “Dh (nm)” value ([1]; JD 0.3 mg·mL−1 in water) was 153 nm and the PDI ([1]; JD 0.4 mg·mL−1 in water) was 0.275. For the same compound, the “Dh (nm)” value ([1]; JD 0.4 mg·mL−1 in water) was 174 nm, the PDI ([1]; JD 0.5 mg·mL−1 in water) was 0.240 and the “Dh (nm)” value ([1]; JD 0.5 mg·mL−1 in water) was 281 nm. For the same compound, the “Number of vesicle layers: 1 (count of vesicles)” value ([2]; vesicles with 1 layer) was 7, the “Number of vesicle layers: 2 (count of vesicles)” value ([2]; vesicles with 2 layers) was 6 and the “Number of vesicle layers: 3 (count of vesicles)” value ([2]; vesicles with 3 layers) was 2. The “Number of vesicle layers: 4 (count of vesicles)” value ([2]; vesicles with 4 layers) was 1, the “Number of vesicle layers: 5 (count of vesicles)” value ([2]; vesicles with 5 layers) was 1 and the “Number of vesicle layers: 6 (count of vesicles)” value ([2]; vesicles with 6 layers) was 3.
In the case of “(3,5)-12G2-BMPA-GC-(achiral)-(3,4,5)-3EO-G1 [Compound 4]”, the Luminescence [3, 5] is reported as 3,283, the Luminescence [3, 6] is reported as 1,613 and the Luminescence [3, 7] is reported as 2,063. The PDI [4, 5] was 0.330, the “Size (d, nm)” value [4, 5] was 58 nm and the PDI [4, 6] was 0.284. The “Size (d, nm)” value [4, 6] was 178 nm, the PDI [4, 7] was 0.460 and the “Size (d, nm)” value [4, 7] was 61 nm.
